The results in this text go back to patent US11634594B2, “Antimicrobial agent for coatings and finishes” (SWIMC LLC, priority 2016, dated 2023).

In this assay the test system is challenge pool of 7 bacteria: P. aeruginosa, E. aerogenes, E. coli, K. pneumonia, S. aureus, B. subtilis and S. enterica. Put plainly: ASTM D 2574 (modified) on pigment dispersions, split samples aged at room temperature / 3 weeks 60° C. / 6 weeks 60° C. In kind it is cell-based. As to the method: ASTM D 2574: Standard Test for Resistance of Emulsion Paints in the Container to Attack by Microorganisms.
The test is conducted in accordance with the ASTM standard, except for the following modifications noted for the preparation of the inoculum and test procedure.
Preparation of Inoculum: There are 7 bacteria used in forming the challenge pool, they include: P. aeruginosa (ATCC #10145), E. aerogenes (ATCC #13048), E. coli (ATCC #10536), K. pneumonia (ATCC #10031), S. aureus (ATCC #6538), B. subtilis (ATCC #6051) and S. enterica (ATCC #13312). Bacterial cultures are prepared 24 hours before the test is scheduled to start by selecting one colony from a plate with a […], inoculating loop, adding it to 10 mL of sterile tryptic soy broth tubes and placing it on the shaking incubator. A 1 mL of each of the seven organisms is combined into a pool in a conical tube. A 1 mL of the created pool is then added to a 9 mL of sterile tryptic soy broth in a conical tube to get an inoculum concentration of ˜10^8 CFU/mL.
Test Procedure: A 1:100 dilution of the inoculum is added into each sample (ex. […], into 40 mL of sample) which provides a ˜10^6 CFU/mL challenge. The samples are then placed into 35° C. incubator for 24 hours to grow new organisms before each inoculation. The samples are inoculated on Days: 0, 2, 7 and 14. The samples are put back into incubator after each inoculation. […]

On to bismuth aluminate, for which, where the note is “Table 4”, the “effectiveness compared with isothiazolone antimicrobial agent” value is “at least as effective as the isothiazolone antimicrobial agent”. Where the note is “initial results”, the preventing microbial growth entry is “effective in preventing microbial growth”.
